In patent US20260021147A1, “COMPOSITIONS AND METHODS FOR TREATING INFLAMMATORY DISEASE” (The Regents of the University of Michigan, priority 2022, published 2026):
“Also recorded” adds a separate entry of the source.

Assays:
[1] = test system: Bacteroides thetaiotaomicron (MDA-JAX BT001); assay: MIC of meropenem with MIC test strips; format: cell-based; conditions: mouse-derived BT
Experimental: Mouse-derived BT (MDA-JAX BT001), Enterococcus faecalis (MDA-JAX EF001) and Clostridium disporicum (MDA-JAX CD001), Clostridium saudiense (MDA-JAX CS001), and Lachnospiraceae unclassified (MDA-JAX LS001) were isolated and cultured from mouse stool samples suspended in 1 ml of chilled 20% anaerobic glycerol in a Whitley anaerobic chamber (10% H2, 5% CO2 and 85% N2). Human-derived BT (ATCC 29148) was purchased from ATCC. Bacterial number was quantified using a Nexcelom Cellometer cell counter with SYTO™ BC dye and propidium iodide. For measuring MICs against meropenem, bacteria were cultured on BYE plates including 5% sterilized rumen fluid (Fisher Scientific) with MIC test strips (Liofilchem™ MTS™ Meropenem [MRP] 0.016-256 μg/mL, Fisher Scientific). Bacterial growth experiments were performed in a bacterial liquid media, BYEM10, composed of a hybrid of BHI and M10 supplemented with yeast extract (Table 4). Bacteria were cultured up to 48 hours at a starting concentration of 1×10^6 bacteria/ml in BYEM10 broth (pH 7.2) with and without 5 mg/ml of porcine gastric mucin (M1778, Sigma-Aldrich) with or without 0.5 mg/ml of D-(+)-xylose (X3877), D-(+)-mannose (M8574, Sigma-Aldrich) or D-(+)-glucose (G8270). Optical densities (OD600 nm) of bacterial cultures were measured with a BioTek EPOCH 2 plate reader.

intestinal microbiota [2] = assay: Quantification of fecal bacterial density by 16S rRNA gene qPCR; format: in vivo, mice; conditions: 0.625 g/L meropenem in drinking water
Experimental: Genomic DNA was isolated from stool as described above. qPCR was performed as previously described (Yang et al., 2015). In brief, 16S rRNA gene sequences were amplified from total fecal DNA using the primers 926F (5′-[…]-3′) and 1062R (5′-[…]-3′). Real-time PCR was carried out in 96-well optical plates on QuantStudio Flex 6 RT PCR (Thermo Fisher) and KAPA SYBR FAST Master Mix (Roche). The PCR conditions included one initial denaturing step of 10 min at 95° C. and 40 cycles of 95° C. for 20 sec and 60° C. for 1 min. Melting-curve analysis was performed after amplification. To determine bacterial density, a plasmid with a 16S rRNA gene of a murine Blautia isolate was generated in the pCR4 backbone and used as a standard.

[3] = test system: allogeneic mice (B6D2F1 recipients of B6 donor cells); assay: Murine GvHD model (allo-HSCT): survival and GvHD histology; format: in vivo
Experimental: In a murine model with a mucin-deficient mutate strain of BT, piperacillin/tazobactam was given at a concentration of 3.2 g/L in combination with vancomycin and metronidazole dosed 1.5 mg daily by oral gavage from days −16 to −12 relative to transplant.
D-(+)-xylose (X3877, Sigma-Aldrich) or D-(+)-glucose (G8270, Sigma-Aldrich) was dissolved in phosphate buffer pH 8.0 with meropenem or in water without meropenem and given at a concentration of 0.5% from days 13 to 28 after allo-HSCT.
Mice were transplanted as previously described (Hayase et al., 2017).
(§1) Pathology scores were quantified by a blinded pathologist. […] Sections were imaged using an Aperio AT2.

intestinal microbiota [4] = assay: 16S rRNA sequencing of fecal and mucosal microbiome in mice; format: in vivo
Experimental: Fecal samples which were collected from patients and mice and colonic mucosal samples, which were collected from mice were weighed before DNA isolation. […] The quality and quantity of the barcoded amplicons were assessed on an Agilent 4200 TapeStation system (Agilent) and Qubit Fluorometer (Thermo Fisher Scientific), and libraries were prepared after pooling at equimolar ratios. The final libraries were purified using QIAquick gel extraction kit (28706X4, Qiagen) and sequenced with a 2×250 base pair paired-end protocol on the Illumina MiSeq platform.
For differential abundance analysis, abundances of sequences belonging to taxonomical groups were included for analysis using the Mann-Whitney U test and adjusted for multiple comparisons using the method of Benjamini-Hochberg. Paired samples were analyzed using the Wilcoxon signed rank test with adjustment for multiple comparisons.

colonic mucus layer = assay: Colonic mucus thickness by PAS staining; format: in vivo, mice; conditions: allogeneic mice, day 18
From the text: as §1

MLNs = assay: Microbiologic analysis of bacterial translocation to mesenteric lymph nodes; format: in vivo; conditions: allogeneic mice, day 18
Experimental: Mesenteric lymph nodes (MLNs) were harvested from mice and homogenized in PBS and cultured anaerobically on BHI plates containing yeast extract and 5% sterilized rumen fluid (Fisher Scientific) and Columbia blood agar plates (BD) for 4 days at 37° C. Colony-forming units (CFUs) were counted and adjusted per organ. Bacteria were identified by MALDI Biotyper.

[5] = Carbohydrates analysis of mouse feces by IC-MS; format: in vivo; conditions: allogeneic mice, day 18
Experimental: To determine the relative abundance of carbohydrates in mouse feces samples, extracts were prepared and analyzed by ultra-HRMS. Fecal pellets were homogenized with a Precellys Tissue Homogenizer. Metabolites were extracted using 1 mL ice-cold 80/20 (v/v) methanol/water. Extracts were centrifuged at 17,000 g for 5 min at 4° C., and supernatants were transferred to clean tubes, followed by evaporation to dryness under nitrogen. Dried extracts were reconstituted in deionized water, and 5 μL was injected for analysis by IC-MS. IC mobile phase A (MPA; weak) was water, and mobile phase B (MPB; strong) was water containing 100 mM KOH. A Thermo Scientific Dionex ICS-5000+ system included a Thermo CarboPac PA-20-Fast column (4 μm particle size, 100×2 mm) with column compartment kept at 30° C. The autosampler tray was chilled to 4° C. The mobile phase flow rate was 200 μL/min, and the gradient elution program was: 0-0.5 min, 1% MPB; 0.5-10 min, 1-5% MPB; 10-15 min, 5-95% MPB; 15-20 min, 95% MPB; 20.5-25, 95-1% MPB. The total run time was 25 min. To assist the desolvation for better sensitivity, methanol was delivered by an external pump and combined with the eluent via a low dead volume mixing tee. Data were acquired using a Thermo Orbitrap Fusion Tribrid Mass Spectrometer under ESI negative ionization mode at a resolution of 240,000. […]

intestinal microbiota [6] = assay: Fecal microbiome of 44 allo-HSCT patients, pre-HSCT versus day 14; format: in vivo, human; conditions: pre-HSCT vs day 14, paired analysis
Experimental: Fecal samples which were collected from patients and mice and colonic mucosal samples, which were collected from mice were weighed before DNA isolation. In brief, genomic DNA was isolated using the QIAamp DNA mini kit (51306, Qiagen) according to the manufacturer's protocol that was modified to include an intensive bead-beating lysis step. The V4 region of 16S rRNA gene was amplified by PCR from 100 ng of each of extracted and purified genomic DNA using 515 forward and 806 reverse primer pairs (Caporaso et al., 2012). The quality and quantity of the barcoded amplicons were assessed on an Agilent 4200 TapeStation system (Agilent) and Qubit Fluorometer (Thermo Fisher Scientific), and libraries were prepared after pooling at equimolar ratios. […]
Sequencing data from paired-end reads were de-multiplexed using QIIME 2 (Caporaso et al., 2010). Merging of paired-end reads, dereplicating, and length filtering was performed using VSEARCH 2.17.1 (Rognes et al., 2016). […] Weighted UniFrac distances (Lozupone et al., 2011) were determined using QIIME 2, visualized using principal coordinate analysis, and evaluated for statistical significance using permutational multivariate analysis of variance (PERMANOVA) testing. […] Paired samples were analyzed using the Wilcoxon signed rank test with adjustment for multiple comparisons.

C[C@@H](O)[C@H]1C(=O)N2C(C(=O)O)=C(S[C@@H]3CN[C@H](C(=O)N(C)C)C3)[C@H](C)[C@H]12 [meropenem]
MIC [1]: 4 µg/mL
reduction in fecal bacterial density (intestinal microbiota [2]): one-log reduction
GvHD histological scores in the colon ([3]; meropenem days 3 to 15, day 18, vs control allogeneic mice): significantly higher GvHD histological scores in the colon
overall survival ([3]; meropenem in drinking water days 3 to 15, vs control allogeneic mice): significantly worsened survival
abundances of Bacteroides and several other genera (intestinal microbiota [4]; allogeneic mice, day 21): significantly higher abundances
relative abundance of Clostridia (intestinal microbiota [4]; meropenem-treated allogeneic mice, from day 7 until 6 days after stopping): depleted; also recorded: significantly decreased
compositional differences between luminal and mucosal samples (intestinal microbiota [4]; treated allogeneic mice, PERMANOVA testing): loss of this distinction
colonic mucus layer (colonic mucus layer): significantly thinned colonic mucus layer; also recorded: thinning of the colonic mucus layer
bacterial loads in MLNs (MLNs): Higher bacterial loads
levels of luminal monosaccharides in the colon [5]: significantly lower concentrations of arabinose and xylose; also recorded: decreased levels of xylose
change of genus Bacteroides from baseline (intestinal microbiota [6]): significant expansion of bacteria from the genus Bacteroides
